“Also recorded” adds a separate entry of the source.
Columns and labels:
Huh7.5 cells = assay: HCV infectivity titers (FFU assay) of culture supernatant after RNA transfection or viral passage; type: cell-based, human
Procedure: Transfection and infection of Huh7.5 cells. The human hepatoma cell line Huh7.5 was maintained as described. Cells were plated in 6-well plates (˜3.5×10^5 cells/well) ˜24 hours before RNA transfection or viral infection, reaching 80-90% confluence at the time of inoculation. RNA transfection and viral infection were performed as previously described. The transfected or infected cultures were incubated for ˜16 hours, and sub-cultured every 2-3 days; culture supernatant was collected, filtered (0.45 μm), and stored at […] until analysis.
Analysis of HCV in cultured cells. […] Percentage of HCV antigen positive cells in the culture was determined with fluorescence microscopy. Culture supernatants were collected when 80% of cells were HCV antigen positive (peak infection) and HCV infectivity titers were determined by an FFU assay using a combination of C7-50 and 9E10, as previously described. […] The number of FFU was automatically counted with an ImmunoSpot Series 5 UV Analyzer with customized software (CTL Europe GmbH). HCV RNA titers in the culture supernatant were determined using real time RT-PCR TaqMan method. Core antigen levels were determined by the Architect HCV Ag detection system (Abbott) following manufacturer's instructions. Whole ORF sequences of passaged viruses were determined using procedures previously described for the sequencing of H77C and JFH1 genomes.

CD81-deficient S29 cells = assay: Single-cycle production assay: intra- and extracellular infectivity titers and core levels; type: cell-based, human; conditions: 48 hours after transfection
Procedure: Determination of intra- and extra-cellular HCV core levels and infectivity titers. For single-cycle production assays, an Huh7-derived CD-81 deficient cell line S29 was transfected with HCV RNA and intracellular HCV core levels were measured 4 and 48 hours post transfection. Additionally, intra- and extra-cellular HCV infectivity titers, as well as extracellular HCV core concentration, were determined 48 hours post transfection, as described previously. Briefly, for this assay, S29 cells were seeded in 6 well plates (˜3.5×10^5 cells/well) 24 hours prior to transfection. Plasmids of the different full-length clones were digested with XbaI (New England Biolabs, NEB) for linearization and treated with Mung Bean nuclease (NEB). HCV RNA was generated by in vitro transcription using T7 RNA polymerase (Promega). […] RNA was quantified using spectrophotometry (NanoDrop) and 10 μg of RNA was used for transfection with Lipofectamine 2000 (Invitrogen). […] Both, intra- and extra-cellular core antigen levels were determined by the Architect HCV Ag detection system (Abbott) following the manufacturer's instructions. […] Specific dilutions were analyzed in triplicate for HCV infectivity titers, and the FFU was counted using an ImmunoSpot Series 5 UV Analyzer with customized software (CTL Europe GmbH), and confirmed by manual count. […]

HCV1_LSGF/S399F/TNm/4m: full-length HCV-1 recombinant with LSGF/S399F/TNm plus A970T/I1312V/C2419R/A2919T
day at which HCV infectivity titers were first detectable (Huh7.5 cells; after transfection of Huh7.5 cells, detection limit 10^2.4 FFU/ml): 4 days | infectivity titers compared with HCV1cc (Huh7.5 cells; transfected Huh7.5 cells): slightly lower than those of HCV1cc; also recorded: close to those of HCV1cc | extracellular infectivity titers (CD81-deficient S29 cells): comparable to those of HCV1cc

From US10280404B2, “Optimized HCV full-length infectious cell culture systems and applications thereof” (Hvidore Hospital, priority 2014, dated 2019)
